Data: patent US6331555A, “Treatment of platelet derived growth factor related disorders such as cancers” (priority 1999, dated 2001)
pIC50: −log10 of the molar value. Values joined by “and” are separate entries in the source; they are usually repeats but may differ in a detail not shown here. Equal entries are not always repeated. Where two headings read alike, the source gives them in different places.

Experiments:
PDGFR [1] = biological target: T1, PDGFR (Homo sapiens, UniProt P09619); assay: PDGF-stimulated receptor phosphorylation in U1242 cells, ELISA; assay type: cell-based; design: U1242 (PDGF-β receptor); host or cells: U1242 MG glioma cells; details: 100 ng/ml PDGF-BB; read-out: ELISA P-TYR U1242 IC50
Protocol: (§1) For ELISA assays, cells were grown to 80-90% confluency in growth medium and seeded in 96-well tissue culture plates in 0.5% serum at 25,000 to 30,000 cells per well. After overnight incubation in 0.5% serum-containingmedium, cells were changed to serum-free medium and treated with test compound for 2 hr in a 5% CO2, 37° C. incubator. Cells were then stimulated with ligand for 5-10 min followed by lysis with HNTG (20 mM Hepes, 150 mM NaCl, 10% glycerol, 5 mM EDTA, 5 mM Na3 VO4 0.2% Triton X-100, and 2 mM NaPyr). […] Lysates were incubated with shaking for 1 hr at room temperature. The plates were washed with TBST four times and then incubated with polyclonol anti-phosphotyrosine antibody at room temperature for 30 min. Excess anti-phosphotyrosine antibody was removed by rinsing the plate with TBST four times. Goat anti-rabbit IgG antibody was added to the ELISA plate for 30 min at room temperature followed by rinsing with TBST four more times.
U1242 MG cells were plated in 96-well plates at a concentration of 5×10^4 cells/well in cultured media containing 0.5% FBS. The cells were incubated for 24 hours. The cells were then treated with a particular compound for 2 hours followed by the addition of 100 ng/ml PDGF-BB and incubation for 10 minutes.
Cells were lysed in 0.2 M Hepes, 0.15 M NaCl, 10% V/V glycerol, 0.04% Triton X-100, 5 mM EDTA, 5 MM Na^+ vanadate and […] Na^+ pyrophosphate. Cell lysates were then added to an ELISA plate coated with an anti-PDGF receptor antibody (Genzyme). ELISA plates were coated at […] of antibody/well in […] of PBS for 18 hours at 4° C. prior to the addition of the lysate.
The lysate was incubated in the coated plates for 1 hour and then washed four times in TBST (35 mM Tris-HCl pH 7.0, 0.15 M NaCl, 0.1% Triton X-100). Anti-phosphotyrosine antibody ([…] in PBS) was added and the mixture was incubated for 30 minutes at room temperature. The wells were then washed four times in TBST, a secondary antibody conjugated to POD (TAGO) was added to each well, and the treated wells were incubated for 30 minutes at room temperature. The wells were then washed four times in TBST, ABTS/H2 O2 solution was added to each well and the wells were incubated for two minutes. Absorbance was then measured at 410 nm.

PDGFR [2] = assay: Receptor tyrosine kinase inhibition, PDGFR; assay type: cell-based
Protocol: (§2) For western blotting, cells were plated in 2 mL growth medium into 6-well dishes (500,000 cells per well) and allowed to attach overnight. […] The plates were then incubated overnight at 37° C., ambient CO2. […] After a 7 min incubation at room temperature with ligand, the plates were put on ice and washed three times with 1 mL ice-cold PBS plus 1 mM orthovanadate. Lysis was achieved by pipetting cells in 0.5 mL of buffer containing 50 mM Tris, pH 7.4, 10% glycerol, 1% NP-40, 2 mM EDTA, 1 mM sodium vanadate (Na3 VO4), 10 mM pyrophosphate, 1 mM PMSF, […]. A 300 μL aliquot of each lysate was immediately added to 100 μL 4×Laemmli sample buffer ([…] Tris pH 6.9, 20% glycerol, 7% SDS, 5 mM EDTA, 5% β-mercaptoethanol) containing phosphatase inhibitors, 2 mM Na3 VO4 and 10 mM pyrophosphate. Samples were boiled for 5 min, frozen in dry ice-ethanol, and stored at -80° C. […] The integrity of the protein-to-membrane transfer was determined by staining with 1% Ponceau S in 5% acetic acid for 5 min. After destaining in several distilled water rinses, the membrane was soaked overnight in blocking buffer containing 5% milk in Tris-buffered saline, 0.05% Tween 20. Phosphotyresine was detected by incubating the membrane (1 hr at room temperature) with an anti-phosphotyosine antiserum diluted in blocking buffer at 1:3000. […] The antibodies were visualized using ECL reagent from Amersham and by exposure to Fuji RX film.
as §1, with “incubator.” for “incubator. Cells were then stimulated with ligand for 5-10 min followed by lysis with HNTG (20 mM Hepes, 150 mM NaCl, 10% glycerol, 5 mM EDTA, 5 mM Na3 VO4 0.2% Triton X-100, and 2 mM NaPyr).”
(§3) The ability of different compound to inhibit different receptor tyrosine kinases was tested.

EGFR = biological target: T2, EGFR (Homo sapiens, UniProt P00533); assay: Receptor tyrosine kinase inhibition, EGFR; assay type: cell-based; details: for pIC50: read-out: EGFR ID50
T2 construct: expressed in transfected cells; host or cells: NIH3T3 mouse fibroblasts, retroviral vector
Protocol: (§4) For western blotting, cells were plated in 2 mL growth medium into 6-well dishes (500,000 cells per well) and allowed to attach overnight. The medium was replaced with 2 mL MCDB 105 (UCSF Cell Culture Facility) supplemented with 1% FBS. The plates were then incubated overnight at 37° C., ambient CO2. […] After a 7 min incubation at room temperature with ligand, the plates were put on ice and washed three times with 1 mL ice-cold PBS plus 1 mM orthovanadate. Lysis was achieved by pipetting cells in 0.5 mL of buffer containing 50 mM Tris, pH 7.4, 10% glycerol, 1% NP-40, 2 mM EDTA, 1 mM sodium vanadate (Na3 VO4), 10 mM pyrophosphate, 1 mM PMSF, […]. A 300 μL aliquot of each lysate was immediately added to 100 μL 4×Laemmli sample buffer ([…] Tris pH 6.9, 20% glycerol, 7% SDS, 5 mM EDTA, 5% β-mercaptoethanol) containing phosphatase inhibitors, 2 mM Na3 VO4 and 10 mM pyrophosphate. Samples were boiled for 5 min, frozen in dry ice-ethanol, and stored at -80° C. Proteins were resolved by SDS-PAGE (Bio-Rad Miniprotean II) and transferred to nitrocellulose membrane (Schleicher & Schuell) at 120 volts for 1 hr at room temperature in buffer containing 25 mM Tris pH 8.3, 20% methanol, 0.2 M glycine, 0.1% SDS. The integrity of the protein-to-membrane transfer was determined by staining with 1% Ponceau S in 5% acetic acid for 5 min. After destaining in several distilled water rinses, the membrane was soaked overnight in blocking buffer containing 5% milk in Tris-buffered saline, 0.05% Tween 20. Phosphotyresine was detected by incubating the membrane (1 hr at room temperature) with an anti-phosphotyosine antiserum diluted in blocking buffer at 1:3000. For C6 cells, PDGF-β receptor content in the lysates was confirmed in duplicate sample lanes by western blotting using an antibody specific for PDGF-β receptor (UBI). The antibodies were visualized using ECL reagent from Amersham and by exposure to Fuji RX film.
(§5) For ELISA assays, cells were grown to 80-90% confluency in growth medium and seeded in 96-well tissue culture plates in 0.5% serum at 25,000 to 30,000 cells per well. After overnight incubation in 0.5% serum-containingmedium, cells were changed to serum-free medium and treated with test compound for 2 hr in a 5% CO2, 37° C. incubator. Cells were then stimulated with ligand for 5-10 min followed by lysis with HNTG (20 mM Hepes, 150 mM NaCl, 10% glycerol, 5 mM EDTA, 5 mM Na3 VO4 0.2% Triton X-100, and 2 mM NaPyr). Cell lysates (0.5 mg/well in PBS) were transferred to ELISA plates previously coated with receptor-specific antibody and which had been blocked with 5% milk in TBST (50 mM Tris-HCl pH 7.2, 150 mM NaCl and 0.1% Triton X-100) at room temperature for 30 min. Lysates were incubated with shaking for 1 hr at room temperature. The plates were washed with TBST four times and then incubated with polyclonol anti-phosphotyrosine antibody at room temperature for 30 min. Excess anti-phosphotyrosine antibody was removed by rinsing the plate with TBST four times. Goat anti-rabbit IgG antibody was added to the ELISA plate for 30 min at room temperature followed by rinsing with TBST four more times.
as §3

HER2 = assay: Receptor tyrosine kinase inhibition, HER2; assay type: cell-based; details: for pIC50: read-out: HER2 IC50
Protocol: as §4, §5, §3

PDGFR [3] = biological target: T1, PDGFR; assay: Receptor tyrosine kinase inhibition, PDGFR; assay type: cell-based; design: U1242 (PDGF-β receptor); host or cells: U1242 glioma cells (ELISA)
Protocol: as §2
as §1, with “incubator.” for “incubator. Cells were then stimulated with ligand for 5-10 min followed by lysis with HNTG (20 mM Hepes, 150 mM NaCl, 10% glycerol, 5 mM EDTA, 5 mM Na3 VO4 0.2% Triton X-100, and 2 mM NaPyr).”
as §3

FLK-1 = biological target: T3, FLK-1 (Mus musculus, UniProt P35918); assay: Receptor tyrosine kinase inhibition, FLK-1; assay type: cell-based; details: read-out: FLK-1 IC50
T3 construct: expressed in transfected cells; host or cells: NIH3T3 mouse fibroblasts, retroviral vector
Protocol: as §4, §5, §3

PDGF-R (U1242) = biological target: T4, PDGF-R (U1242) (Homo sapiens, UniProt P09619); assay: U1242 kinase (PDGF-R activity); assay type: cell-based
T4 construct: U1242 (PDGF-β receptor); host or cells: U1242 MG glioma cells
Protocol: as §2
as §1, with “incubator.” for “incubator. Cells were then stimulated with ligand for 5-10 min followed by lysis with HNTG (20 mM Hepes, 150 mM NaCl, 10% glycerol, 5 mM EDTA, 5 mM Na3 VO4 0.2% Triton X-100, and 2 mM NaPyr).”
PDGF-R activity, C6 SRB, and in vivo efficacy were measured using the procedures described in the appendices above.

C6 cells = assay: C6 SRB growth assay; assay type: cell-based, rat; details: Rattus norvegicus, C6; read-out: C6 SRB IC50
[4] = W = done in Western assay; read-out: PDGFR IC50 (W)
[5] = W = done in Western assay, read-out: U1242 KINASE IC50 (W)

T1 sequence (P09619 33-1106): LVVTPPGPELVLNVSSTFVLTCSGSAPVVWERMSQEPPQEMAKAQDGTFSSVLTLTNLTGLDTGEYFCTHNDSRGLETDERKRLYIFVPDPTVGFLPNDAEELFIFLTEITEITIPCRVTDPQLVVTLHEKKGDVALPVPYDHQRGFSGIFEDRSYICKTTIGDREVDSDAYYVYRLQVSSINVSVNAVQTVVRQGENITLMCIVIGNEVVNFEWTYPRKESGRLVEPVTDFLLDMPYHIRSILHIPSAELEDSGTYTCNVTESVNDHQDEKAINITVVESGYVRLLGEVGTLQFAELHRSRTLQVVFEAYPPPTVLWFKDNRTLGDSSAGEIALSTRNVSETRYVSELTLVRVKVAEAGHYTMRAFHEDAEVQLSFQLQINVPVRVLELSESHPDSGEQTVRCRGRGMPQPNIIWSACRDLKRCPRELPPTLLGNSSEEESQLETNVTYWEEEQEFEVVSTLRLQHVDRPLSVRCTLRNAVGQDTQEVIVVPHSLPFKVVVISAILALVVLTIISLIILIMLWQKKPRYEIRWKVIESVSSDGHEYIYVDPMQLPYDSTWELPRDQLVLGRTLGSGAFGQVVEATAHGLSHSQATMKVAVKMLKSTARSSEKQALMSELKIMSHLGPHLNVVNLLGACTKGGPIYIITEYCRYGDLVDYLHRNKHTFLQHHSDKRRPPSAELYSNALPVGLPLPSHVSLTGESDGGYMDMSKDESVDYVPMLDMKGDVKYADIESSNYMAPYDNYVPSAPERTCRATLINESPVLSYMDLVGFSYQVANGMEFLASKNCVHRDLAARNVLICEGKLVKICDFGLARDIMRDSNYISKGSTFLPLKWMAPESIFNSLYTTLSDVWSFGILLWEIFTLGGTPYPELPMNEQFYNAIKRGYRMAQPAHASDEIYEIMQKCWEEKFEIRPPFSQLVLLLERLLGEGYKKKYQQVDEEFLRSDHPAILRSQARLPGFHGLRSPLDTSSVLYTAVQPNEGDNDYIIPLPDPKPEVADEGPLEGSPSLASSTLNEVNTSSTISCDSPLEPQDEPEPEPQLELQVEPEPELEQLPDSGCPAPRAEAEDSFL
T4 sequence (P09619 33-1106): as above
T3 sequence (P35918 20-1345): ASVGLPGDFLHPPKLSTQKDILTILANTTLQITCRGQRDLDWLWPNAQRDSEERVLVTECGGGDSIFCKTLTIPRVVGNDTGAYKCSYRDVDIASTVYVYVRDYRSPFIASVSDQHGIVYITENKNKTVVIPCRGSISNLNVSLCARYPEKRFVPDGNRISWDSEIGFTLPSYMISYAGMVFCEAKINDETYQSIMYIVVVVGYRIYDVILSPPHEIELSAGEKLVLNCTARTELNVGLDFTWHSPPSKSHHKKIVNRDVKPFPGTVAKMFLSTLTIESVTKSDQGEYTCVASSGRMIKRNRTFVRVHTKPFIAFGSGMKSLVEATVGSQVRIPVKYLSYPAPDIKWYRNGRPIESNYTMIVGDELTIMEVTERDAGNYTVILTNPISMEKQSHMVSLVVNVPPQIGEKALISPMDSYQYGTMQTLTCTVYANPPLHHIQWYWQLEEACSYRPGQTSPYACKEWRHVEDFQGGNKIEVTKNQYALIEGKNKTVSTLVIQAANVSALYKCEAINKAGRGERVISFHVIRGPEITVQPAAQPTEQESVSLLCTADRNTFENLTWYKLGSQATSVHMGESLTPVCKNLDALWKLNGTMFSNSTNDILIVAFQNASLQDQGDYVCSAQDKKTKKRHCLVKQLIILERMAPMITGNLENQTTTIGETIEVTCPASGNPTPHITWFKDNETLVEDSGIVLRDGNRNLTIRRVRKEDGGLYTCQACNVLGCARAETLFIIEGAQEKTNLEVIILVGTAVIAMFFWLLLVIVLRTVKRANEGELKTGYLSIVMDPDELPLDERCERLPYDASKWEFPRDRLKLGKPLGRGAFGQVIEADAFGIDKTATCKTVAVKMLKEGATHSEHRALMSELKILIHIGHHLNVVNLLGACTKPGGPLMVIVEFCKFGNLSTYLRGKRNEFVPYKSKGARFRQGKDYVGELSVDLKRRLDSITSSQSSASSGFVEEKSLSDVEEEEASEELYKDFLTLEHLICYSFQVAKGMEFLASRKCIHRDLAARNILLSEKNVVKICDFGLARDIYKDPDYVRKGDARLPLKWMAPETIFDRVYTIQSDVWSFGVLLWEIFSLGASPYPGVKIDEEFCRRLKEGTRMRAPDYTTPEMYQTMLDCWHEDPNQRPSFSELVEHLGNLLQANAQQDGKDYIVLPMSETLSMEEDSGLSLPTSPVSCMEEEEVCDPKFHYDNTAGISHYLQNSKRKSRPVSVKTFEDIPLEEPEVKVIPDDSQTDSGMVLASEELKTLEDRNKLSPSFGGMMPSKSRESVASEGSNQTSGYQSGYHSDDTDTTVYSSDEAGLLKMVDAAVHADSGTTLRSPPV
T2 sequence (P00533 25-1210): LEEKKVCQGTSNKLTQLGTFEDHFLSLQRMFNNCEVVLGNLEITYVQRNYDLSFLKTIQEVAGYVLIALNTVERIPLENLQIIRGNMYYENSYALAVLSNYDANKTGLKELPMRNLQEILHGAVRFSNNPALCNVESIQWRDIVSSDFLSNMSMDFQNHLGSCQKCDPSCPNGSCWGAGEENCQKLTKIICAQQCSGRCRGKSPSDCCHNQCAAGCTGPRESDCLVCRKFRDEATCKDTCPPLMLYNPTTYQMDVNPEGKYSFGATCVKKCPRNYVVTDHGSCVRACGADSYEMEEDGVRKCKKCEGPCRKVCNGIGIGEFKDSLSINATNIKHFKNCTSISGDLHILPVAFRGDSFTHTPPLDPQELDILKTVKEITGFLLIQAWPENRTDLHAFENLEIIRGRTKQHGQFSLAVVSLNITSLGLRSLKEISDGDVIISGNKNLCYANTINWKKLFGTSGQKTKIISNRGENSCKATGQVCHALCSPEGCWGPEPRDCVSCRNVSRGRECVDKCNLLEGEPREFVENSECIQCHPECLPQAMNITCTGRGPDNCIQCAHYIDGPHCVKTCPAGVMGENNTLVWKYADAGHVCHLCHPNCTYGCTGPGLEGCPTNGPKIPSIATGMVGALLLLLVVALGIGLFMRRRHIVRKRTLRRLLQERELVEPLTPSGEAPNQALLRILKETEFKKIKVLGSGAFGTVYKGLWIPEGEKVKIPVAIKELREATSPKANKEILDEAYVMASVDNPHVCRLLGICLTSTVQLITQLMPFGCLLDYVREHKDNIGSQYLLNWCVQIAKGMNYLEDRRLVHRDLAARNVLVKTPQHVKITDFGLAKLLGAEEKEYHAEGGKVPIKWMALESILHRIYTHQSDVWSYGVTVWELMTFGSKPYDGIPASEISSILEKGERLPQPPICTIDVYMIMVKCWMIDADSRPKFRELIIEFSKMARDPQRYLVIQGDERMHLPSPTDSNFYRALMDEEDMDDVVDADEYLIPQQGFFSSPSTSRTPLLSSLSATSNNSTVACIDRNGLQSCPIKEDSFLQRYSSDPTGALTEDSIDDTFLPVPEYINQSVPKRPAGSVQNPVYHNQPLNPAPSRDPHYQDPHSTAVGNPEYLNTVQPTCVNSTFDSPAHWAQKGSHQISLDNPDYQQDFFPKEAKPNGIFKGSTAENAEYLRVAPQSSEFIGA

Row | Structure (SMILES) | pIC50 (PDGFR [1]) | pIC50 (PDGFR [2]; [4]) | pIC50 (FLK-1) | pIC50 (HER2) | pIC50 (C6 cells) | other results
1 | N#CC(=Cc1ccc(O)c(O)c1)c1c(C#N)c(N)nn1-c1ccccc1 [Compound C10] | 4.60 | 4.60 | – | – | – | PDGF-R phosphorylation (PDGFR [2]): effects EGF-4, PDGF-R, and HER2 phosphorylation; EGF receptor phosphorylation (EGFR): effects EGF-4, PDGF-R, and HER2 phosphorylation; HER2 phosphorylation (HER2): effects EGF-4, PDGF-R, and HER2 phosphorylation
2 | CC(C)(C)c1cc(C=C(C#N)c2[nH]nc(N)c2C#N)cc(C(C)(C)C)c1O [Compound C13] | – | – | 5.48 | 4.54 | – | pIC50 (PDGFR [3]): 4.80; pIC50 (EGFR): 4.80
3 | N#CC(=Cc1c[nH]c2ccccc12)C(N)=O [Compound D13] | 4.52 | 4.52 | < 4.30 | – | – | –
4 | CCOc1ccccc1NC(=O)C(=O)NN=Cc1ccc(O)c(O)c1 [Compound E14] | 4.00 | 5.00 | < 4.30 | – | – | –
5 | c1ccc(-c2cnc3ccccc3n2)cc1 [Compound G10] | 5.00 | 5.00 | < 4.30 | – | – | –
6 | COc1cc2cc(-c3ccccc3)c(Cl)nc2cc1OC [Compound G12] | 5.00 | 5.00 | < 4.30 | – | – | PDGF-R phosphorylation (PDGFR [2]): inhibit PDGF-R phosphorylation; EGF receptor phosphorylation (EGFR): do not effect EGF or HER2 phosphorylation; HER2 phosphorylation (HER2): do not effect EGF or HER2 phosphorylation
7 | O=[N+]([O-])c1ccc2ncc(-c3ccccc3)nc2c1 [Compound G23] | – | – | 3.49 | < 4.00 | – | pIC50 (PDGFR [2]; read-out: PDGFR IC50 (W); W = done in Western assay): 4.60; pIC50 (EGFR): < 4.00
8 | Cc1cc2ncc(Nc3cccc(Br)c3)nc2cc1C [Compound G28] | – | – | – | – | 5.35 | pIC50 (PDGF-R (U1242); scndry, read-out: U1242 KINASE IC50 (scndry)): 4.79
9 | CC1c2nc3ccccc3c(=O)n2C(c2cccc(O)c2)N1Cc1ccccc1 (stereo not drawn) [Compound H12] | 4.52 | 4.60 | – | – | 4.72 | pIC50 (PDGF-R (U1242); [5]): < 3.60 and 4.60
10 | N#CC(=Cc1cc(O)c(O)c(Br)c1)C(=O)NCCCNC(=O)C(C#N)=Cc1cc(O)c(O)c(Br)c1 [Compound P10] | – | 5.52 | < 4.60 | < 4.00 | 4.92 | pIC50 (PDGF-R (U1242); [5]): 5.52; pIC50 (EGFR): 4.51
11 | O=C(Nc1cc(C(F)(F)F)cc(C(F)(F)F)c1)c1cccs1 [Compound P12] | – | 4.60 | < 4.30 | < 4.30 | – | –
12 | Cc1cc2ccccc2c[n+]1[O-] [Compound P13] | – | – | – | – | < 4.00 | pIC50 (PDGF-R (U1242); read-out: U1242 KINASE IC50): 5.92
13 | COc1cccc(NC(=S)C(C#N)C(=O)N2CCCC2)c1 (stereo not drawn) [Compound P21, N-3-methoxyphenyl (2-cyano-2-N-pyrrolidinycarbonyl) thioacetamide] | – | – | – | – | < 4.60 | pIC50 (PDGF-R (U1242); read-out: U1242 KINASE IC50): 4.03
14 | N#CC(=Cc1ccc(O)c(O)c1)C(=O)NCc1ccc(F)cc1 [Compound P25] | – | 4.52 | < 3.30 | < 4.00 | – | pIC50 (EGFR): < 4.00
